From patent US10851089B2, “Matrix metalloproteinase (MMP) inhibitors and methods of use thereof” (Foresee Pharmaceuticals Co., Ltd., priority 2018, dated 2020)
Where two headings read alike, the source gives them in different places.

What was measured:
[1] = target: recombinant human MMP-12 catalytic domain (Homo sapiens (Human), UniProt P39900); assay: MMP-12 inhibitory assay (fluorogenic substrate cleavage); assay type: biochemical
Protocol: (§1) The inhibitory effect of compounds on the rate of cleaving fluorogenic MMP substrate (Enzo, BML-P128) by recombinant human MMP-12 catalytic domain (Enzo, BML-SE138) was carried out by methods known in the art. Briefly, to each well of a 96-well black opaque plate, all the reagents were sequentially added by pipetting, and the final reaction contained 4 nM of recombinant human MMP-12 catalytic domain, 4 μM of fluorogenic MMP substrate, and various concentrations (0.15 nM to 10,000 nM) of tested compound dilutions in HEPES buffer (pH 7.5) containing 10 mM of CaCl2, 0.01% Brij® 35 (polyoxyethylene (23) lauryl ether), and 0.1 mg/ml of BSA.
(§2) The enzyme and compounds were pre-incubated on a shaker to mix in wells. After an hour of mixing, fluorogenic substrate was added to each well. Reaction without enzyme was used as a blank control in the plate. The plate was then fed into a plate reader to measure fluorescence intensity at Excitation/Emission wavelengths of 340 nm/440 nm every 10 mins for at least 1 hour at 37° C. The IC50 of each compound in MMP-12 inhibition was determined by using a readout obtained at time point 30 minutes.

recombinant human MMP-10 = recombinant human MMP-10 (Homo sapiens (Human), UniProt P09238); assay: MMP selectivity assay MMP-10; assay type: biochemical
Protocol: as §1, §2
(§3) The MMP selectivity assay was performed by using other recombinant human MMPs, including MMP-1, MMP-2, MMP-3, MMP-7, MMP-8, MMP-9, MMP-10, MMP-13, and MMP-14. The IC50 of the compounds for the other recombinant human MMPs was determined as described above in Example 1, and are shown in Table 2.

recombinant human MMP-1 = recombinant human MMP-1 (Homo sapiens (Human), UniProt P03956); assay: MMP selectivity assay MMP-1; assay type: biochemical
Protocol: as §1, §2, §3

recombinant human MMP-3 = recombinant human MMP-3 (Homo sapiens (Human), UniProt P08254); assay: MMP selectivity assay MMP-3; assay type: biochemical
Protocol: as §1, §2, §3

[2] = system: bleomycin-induced unilateral lung fibrosis; assay: Bleomycin-induced SD rat unilateral lung fibrosis model (IPF); assay type: in vivo; set-up: Left lung bronchial and arteriole damage score, fibrosis core / Left lung bronchial and arteriole damage score, fibrosis border: scale not given here; Fibrosis score 1-3 (ratio of left lung fibrosis score) / Fibrosis score 4-8 (ratio of left lung fibrosis score) / Left lung fibrosis area: unit not given here; details: for Left lung bronchial and arteriole damage score, fibrosis border / Left lung bronchial and arteriole damage score, fibrosis core: 14 days; for Left lung bronchial and arteriole damage score, fibrosis border: model 6.56 ± 0.51; for Left lung bronchial and arteriole damage score, fibrosis core: model 8.34 ± 0.24; for Left lung fibrosis score (Ashcraft): model 3.7 ± 0.1; for Fibrosis score 1-3 (ratio of left lung fibrosis score): model 44.0 ± 3.1; for Fibrosis score 4-8 (ratio of left lung fibrosis score): model 56.0 ± 3.1; for Left lung fibrosis area: model 69.1 ± 3.3
Protocol: The purpose of this study was to evaluate the therapeutic effect of FC-4 on bleomycin (BLM) induced unilateral lung fibrosis model in Sprague Dawley (SD) rats. Male SD rats (n=50) were randomly divided into the following groups: Sham group (n=10), Model group (n=10), FC-4 administered at 10 mg/kg/day group (n=10), FC-4 administered at 30 mg/kg/day group (n=10), and FC-4 administered at 100 mg/kg/day group (n=10). All test drugs were delivered orally starting from day 8 of modeling for 14 days. Saline solution was taken for sham and model groups once a day, and FC-4 twice a day for drug treatment groups. Rats were anesthetized and the trachea was exposed. Saline was administrated via direct intra-trachea injection in the sham group, and the other groups' animals received a BLM injection at a dose of 3 mg/kg in volume of 1.0 ml/kg. All animals were processed using a non invasive lung function test with EMMS Whole Body Plethysmography system at pre-modeling, and at days 3, 7, 11, 14, 18 and 21 of modeling. One day after the last drug delivery, the left lung of all animals was perfused with 10% formalin, and processed for pathology analysis.
Animals: Species and quality level: SD rats, SPF grade. Gender and number: male, 93. Purchasing body weight range: 260-280 g. Company Certificate No.: SCXX (Jing) 2012-001, Beijing Vital River Laboratory Animal Technology Co., Ltd. Animal Housing: Rats were housed in the Animal House Facility of the Nanjing BioSciKin Co. Ltd. under international standards for temperature, humidity and light control system. The animal use protocol was reviewed and approved by the Institutional Animal Care and Use Committee (IACUC) of KCI Biotech Inc. All experimental procedures were conducted in conformity with institutional guidelines of KCI Biotech Inc.
Model Establishment: This study was carried out in strict accordance with the SOP institutional guidelines for the care and use of laboratory animals. Rats were anesthetized by intraperitoneal injection of pentobarbital sodium at dose of 50 mg/kg. Then rat neck skin was disinfected and opened in layers. The trachea was exposed carefully. Bleomycin (BLM) was directly injected into the left main bronchus at a dose of 3 mg/kg body weight in volume of 1.0 ml/kg via a cannula. After closing the trachea and skin in layers the animal was moved on an electric heat pad at 37° C. to await waking up from the anesthesia before returning to holding cages with free access to water and diet.
Experiment Grouping: Rats were assigned into 5groups: Sham (Group-1, n=10), Model (Group-2, n=10), FC-4-Low dose (Group-3, 10 mg/kg/day, n=10), FC-4-Middle dose (Group-4, 30 mg/kg/day, n=10), FC-4-High dose (Group-5, 100 mg/kg/day, n=10) (Table 1).
Drug Administration: Test article FC-4 were designed as an oral administration via a gastric perfusion. FC-4 was delivered twice a day starting from day-8 of modeling for 14 days. (Table 3.1).
Endpoint: a) Non invasive lung function test: All animals were given a non-invasive lung function examination with EMMS Whole Body Plethysmography (WBP) system at multiple time points during the study periods, including at pre-IPF modeling, day-3 of IPF, day-7 of IPF before dosing, day-11 of IPF, day-14 of IPF, day-18 of IPF and day-21 of IPF before sacrificing the animals, focusing on the parameters of tidal volume (TV), breath rate, inspiratory volume per minute (MV) and Penh. index. b) Left lung collection for pathology analysis: After the last examination of lung function, all animals were euthanized according to the standard SOP at KCI. After confirming the animal death, each animal received a systemic perfusion with 10% formaldehyde solution, then the left lung was harvested and perfused again with an equal volume of 10% formaldehyde solution (3 ml for each lung). […]

Sequence of recombinant human MMP-12 catalytic domain (P39900 106-263): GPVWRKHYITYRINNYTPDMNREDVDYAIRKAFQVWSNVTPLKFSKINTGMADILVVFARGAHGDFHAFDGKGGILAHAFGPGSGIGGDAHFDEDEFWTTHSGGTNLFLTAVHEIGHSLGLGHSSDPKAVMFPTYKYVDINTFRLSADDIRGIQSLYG
Sequence of recombinant human MMP-10 (P09238 99-476): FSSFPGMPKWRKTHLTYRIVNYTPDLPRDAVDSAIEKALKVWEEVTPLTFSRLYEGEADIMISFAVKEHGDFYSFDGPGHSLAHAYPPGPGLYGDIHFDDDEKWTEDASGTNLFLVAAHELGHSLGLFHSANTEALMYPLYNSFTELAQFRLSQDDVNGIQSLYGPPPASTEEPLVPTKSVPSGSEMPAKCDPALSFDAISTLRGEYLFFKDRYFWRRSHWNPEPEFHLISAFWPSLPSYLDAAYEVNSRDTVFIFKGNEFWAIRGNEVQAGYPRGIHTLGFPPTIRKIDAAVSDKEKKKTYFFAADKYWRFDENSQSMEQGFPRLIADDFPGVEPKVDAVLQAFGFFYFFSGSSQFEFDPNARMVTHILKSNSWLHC
Sequence of recombinant human MMP-3 (P08254 100-477): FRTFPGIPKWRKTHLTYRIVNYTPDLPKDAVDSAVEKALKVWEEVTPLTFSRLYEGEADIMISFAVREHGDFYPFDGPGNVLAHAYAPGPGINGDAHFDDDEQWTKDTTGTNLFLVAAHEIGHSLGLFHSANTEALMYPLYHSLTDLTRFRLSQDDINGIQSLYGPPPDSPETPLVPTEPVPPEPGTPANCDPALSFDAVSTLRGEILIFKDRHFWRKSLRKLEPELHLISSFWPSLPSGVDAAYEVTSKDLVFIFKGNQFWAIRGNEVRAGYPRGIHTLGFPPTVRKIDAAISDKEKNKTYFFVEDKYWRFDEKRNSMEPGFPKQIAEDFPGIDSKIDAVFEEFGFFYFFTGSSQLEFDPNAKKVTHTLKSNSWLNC
Sequence of recombinant human MMP-1 (P03956 100-469): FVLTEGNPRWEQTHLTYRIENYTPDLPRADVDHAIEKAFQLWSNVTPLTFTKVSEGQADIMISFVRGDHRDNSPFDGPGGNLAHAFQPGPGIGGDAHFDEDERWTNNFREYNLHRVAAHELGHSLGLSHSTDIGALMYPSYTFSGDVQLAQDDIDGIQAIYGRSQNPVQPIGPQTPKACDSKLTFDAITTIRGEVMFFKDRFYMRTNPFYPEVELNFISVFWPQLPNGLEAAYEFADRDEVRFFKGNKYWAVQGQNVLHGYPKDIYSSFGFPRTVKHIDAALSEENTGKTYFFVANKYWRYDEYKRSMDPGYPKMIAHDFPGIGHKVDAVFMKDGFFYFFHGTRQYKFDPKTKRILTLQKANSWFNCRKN

Cc1cc(COc2ccc(Sc3ccoc3C3NC(=O)NC3=O)cc2)ccn1 (stereo not shown) [FC-4]
IC50 ([1]; Table 2 selectivity profile, read-out: MMP-12 activity (IC50)): < 10 nM | IC50 ([1]; readout at 30 minutes, read-out: MMP-12 IC50): < 10 nM | IC50 (recombinant human MMP-10): 100 to 1000 nM | IC50 (recombinant human MMP-1): > 10000 nM | IC50 (recombinant human MMP-3): 100 to 1000 nM | Left lung bronchial and arteriole damage score, fibrosis border ([2]; 10 mg/kg/d p.o. BID): 4.2 ± 0.516 | Left lung bronchial and arteriole damage score, fibrosis core ([2]; 10 mg/kg/d p.o. BID): 6.04 ± 0.19 | Left lung fibrosis score (Ashcraft) ([2]; 10 mg/kg/d p.o. BID): 2.5 ± 0.2 | Fibrosis score 1-3 (ratio of left lung fibrosis score) ([2]; 10 mg/kg/d p.o. BID): 82.0 ± 5.5 | Fibrosis score 4-8 (ratio of left lung fibrosis score) ([2]; 10 mg/kg/d p.o. BID): 18.0 ± 5.5 | Left lung fibrosis area ([2]; 10 mg/kg/d p.o. BID): 75.1 ± 3.0 | Left lung bronchial and arteriole damage score, fibrosis border ([2]; 30 mg/kg/d p.o. BID): 4.76 ± 0.16 | Left lung bronchial and arteriole damage score, fibrosis core ([2]; 30 mg/kg/d p.o. BID): 6.18 ± 0.26 | Left lung fibrosis score (Ashcraft) ([2]; 30 mg/kg/d p.o. BID): 2.6 ± 0.1 | Fibrosis score 1-3 (ratio of left lung fibrosis score) ([2]; 30 mg/kg/d p.o. BID): 81.0 ± 4.8 | Fibrosis score 4-8 (ratio of left lung fibrosis score) ([2]; 30 mg/kg/d p.o. BID): 19.0 ± 4.8 | Left lung fibrosis area ([2]; 30 mg/kg/d p.o. BID): 66.4 ± 2.9 | Left lung bronchial and arteriole damage score, fibrosis border ([2]; 100 mg/kg/d p.o. BID): 4.18 ± 0.53 | Left lung bronchial and arteriole damage score, fibrosis core ([2]; 100 mg/kg/d p.o. BID): 6.28 ± 0.21 | Left lung fibrosis score (Ashcraft) ([2]; 100 mg/kg/d p.o. BID): 2.4 ± 0.2 | Fibrosis score 1-3 (ratio of left lung fibrosis score) ([2]; 100 mg/kg/d p.o. BID): 84.0 ± 4.3 | Fibrosis score 4-8 (ratio of left lung fibrosis score) ([2]; 100 mg/kg/d p.o. BID): 16.0 ± 4.3 | Left lung fibrosis area ([2]; 100 mg/kg/d p.o. BID): 70.5 ± 3.0 | Body weight recovery ([2]; CPD treatment groups vs model group): no significant difference in body recovery | Share of Ashcraft score ≤ score 3 ([2]; all drug treatment groups, model over 60% ≥ score 4): ~80% | MMP-12 expression in fibrosis core (IHC) ([2]; clear dose dependent reduction (p>0.05 as printed)): significant reduction | Collagen-I deposition in fibrosis core (IHC) ([2]; each dose, p<0.05): significant dosing dependent reduction | Collagen-IV deposition in fibrosis core (IHC) ([2]; p<0.05): significant dose dependent reduction | Elastin expression in fibrosis core (IHC) ([2]; p<0.05): significant reduction | TGF-β1 expression in fibrosis core (IHC) ([2]; p<0.05): significant reduction | Non invasive lung function (TV, MV, breath rate, Penh) ([2]; vs vehicle treated animals, all doses): did not show any significant changes
